From patent US20240294551A1 (AMGEN INC., priority 2022, published 2024)
Where two headings read alike, the source gives them in different places.

What was measured:
[1] = system: Phosphorylation of ERK1/2 in AsPC-1 cells; test: Phospho-ERK1/2 MSD Assay; format: cell-based, human
Outline: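 Read-out: MSD electrochemiluminescent detection of phosphorylated ERK1/2 in whole-cell lysates, fitted to a 4-parameter logistic curve for IC50. Prior to lysis, AsPC-1 cells (25,000 per well) received a 2 h compound dose-response at 37 °C.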

[2] = target: GDP-bound KRAS protein (aa 1-169), containing both G12D and C118A amino acid substitutions (Homo sapiens (Human), UniProt P01116, C118A/G12D); test: KRAS G12D Coupled Nucleotide Exchange Assay; format: biochemical
[3] = target: His-tagged KRAS G12D protein (Homo sapiens (Human), UniProt P01116, G12D); test: KRAS G12D TR-FRET Assay; format: binding
Outline: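 Each incubation ran at room temperature: enzyme with compound for 30 minutes, peptide for one hour, and detection reagents (0.4 nM europium anti-6×His, 5 nM streptavidin-d2) for one hour more. Protein and peptide stocks were each diluted to 20 nM before addition.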

[4] = Homo sapiens, ASPC1, 2 h, read-out: 2 h p-ERK (AsPC-1 cells), IC50
[5] = read-out: KRAS G12D Coupled Exchange IC50
[6] = read-out: KRAS G12D Binding IC50

His-tagged KRAS G12D protein, sequence (P01116 other isoform, or with tags, fused parts or gaps G12D): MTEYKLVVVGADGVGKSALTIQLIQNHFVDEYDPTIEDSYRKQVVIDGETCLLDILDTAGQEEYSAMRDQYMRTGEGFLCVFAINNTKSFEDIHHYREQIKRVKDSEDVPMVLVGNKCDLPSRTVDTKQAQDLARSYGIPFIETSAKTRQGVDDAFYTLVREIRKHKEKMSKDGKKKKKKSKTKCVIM
GDP-bound KRAS protein (aa 1-169), containing both G12D and C118A amino acid substitutions, sequence (P01116 other isoform, or with tags, fused parts or gaps G12D/C118A): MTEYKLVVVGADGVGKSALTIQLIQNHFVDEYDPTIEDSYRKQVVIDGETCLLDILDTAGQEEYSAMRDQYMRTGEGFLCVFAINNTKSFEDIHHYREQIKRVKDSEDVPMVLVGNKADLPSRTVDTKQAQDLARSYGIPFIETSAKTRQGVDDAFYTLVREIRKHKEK

| SMILES | IC50 ([1]; Homo sapiens, ASPC1, 2 h, read-out: 2 h p-ERK (AsPC-1 cells)) | IC50 ([2]; 2 hours compound pre-incubation, read-out: KRAS G12D Coupled Exchange) | IC50 ([3]; TR-FRET, read-out: KRAS G12D Binding) | IC50 [1, 4] | IC50 [2, 5] | IC50 [3, 6] | IC50 ([1]; 2 h, read-out: 2 h p-ERK (AsPC-1 cells), IC50) |
| --- | --- | --- | --- | --- | --- | --- | --- |
| Fc1c2ncc3c(nc(OC[C@@]45CCCN4C[C@H](F)C5)nc13)N1CCC[C@H](C1)c1cnc(o1)CCCc1c(Cl)cc3[nH]ncc3c1-2 [Example 387, (18R)-9-chloro-31-fluoro-25-(((2R,7aS)-2-fluorotetrahydro-1H-pyrrolo[1,2-a]pyrrol-7a(5H)-yl)methoxy)-33-oxa-5,6,15,22,24,26,30-heptaazaheptacyclo[25.3.1.1~14,17~.1~18,22~.0~2,10~.0~3,7~.0~23,28~]tritriaconta-1(31),2,4,7,9,14,16,23,25,27,29-undecaene] | 66.3 nM | 4 nM | 8 nM |  |  |  |  |
| O=C1CCCCc2c(Cl)cccc2-c2ncc3c(nc(OC[C@@]45CCCN4C[C@H](F)C5)nc3c2F)N2CC[C@H]3CCN1[C@H]3C2 [Example 162, (25S,29R)-15-chloro-30-fluoro-4-(((2R,7aS)-2-fluorotetrahydro-1H-pyrrolo[1,2-a]pyrrol-7a(5H)-yl)methoxy)-1,3,5,9,22-pentaazahexacyclo[20.5.2.1~6,10~.0~2,7~.0~11,16~.0~25,29~]triaconta-2,4,6,8,10(30),11,13,15-octaen-21-one] |  |  |  | 1830 nM | 20 nM | 37 nM |  |
| O=C1CCCCc2c(Cl)cc3[nH]ncc3c2-c2ncc3c(nc(OC[C@@]45CCCN4C[C@H](F)C5)nc3c2F)N2CC[C@@H]3CCN1[C@@H]3C2 [Example 61, (28R,32S)-18-chloro-33-fluoro-4-(((2R,7aS)-2-fluorotetrahydro-1H-pyrrolo[1,2-a]pyrrol-7a(5H)-yl)methoxy)-1,3,5,9,14,15,25-heptaazaheptacyclo[23.5.2.1~6,10~.0~2,7~.0~11,19~.0~12,16~.0~28,32~]tritriaconta-2,4,6,8,10(33),11,13,16,18-nonaen-24-one] |  |  |  | 70 nM | 34 nM | 79 nM |  |
| O=C1CCCOc2ccc3[nH]ncc3c2-c2ncc3c(nc(OC[C@@]45CCCN4C[C@H](F)C5)nc3c2F)N2CCC[C@H](C2)O1 [Example 30, (17R)-30-Fluoro-24-(((2R,7aS)-2-fluorotetrahydro-1H-pyrrolo[1,2-a]pyrrol-7a(5H)-yl)methoxy)-11,16-dioxa-5,6,21,23,25,29-hexaazahexacyclo[24.3.1.1˜17,21˜.0˜2,10˜.0˜3,7˜.0˜22,27˜]hentriaconta-1(30),2,4,7,9,22,24,26,28-nonaen-15-one] |  |  |  | 1460 nM | 141 nM | 119 nM |  |
| C[C@]12C[C@]3(CN(CCO3)c3nc(OC[C@@]45CCCN4C[C@H](F)C5)nc4c(F)c(ncc34)-c3c(c(Cl)cc4[nH]ncc34)CCOC(=O)O1)C2 [Example 322, (1S,3S)-10-chloro-32-fluoro-24-(((2R,7aS)-2-fluorotetrahydro-1H-pyrrolo[1,2-a]pyrrol-7a(5H)-yl)methoxy)-3-methyl-4,6,30-trioxa-13,14,19,23,25,27-hexaazaheptacyclo[25.3.1.1~1,3~.1~18,22~.0~9,17~.0~12,16~.0~21,26~]tritriaconta-9,11,14,16,18(32),19,21,23,25-nonaen-5-one] |  |  |  | 589 nM | 156 nM | 366 nM |  |
| O=C1N[C@H]2CC[C@@H](O)CN(C2)c2nc(OC[C@@]34CCCN3C[C@H](F)C4)nc3c(F)c(ncc23)-c2c(c(Cl)cc3[nH]ncc23)CCCO1 (racemic) [Example 283, (26S,29R)-18-chloro-32-fluoro-4-(((2R,7aS)-2-fluorotetrahydro-1H-pyrrolo[1,2-a]pyrrol-7a(5H)-yl)methoxy)-29-hydroxy-23-oxa-1,3,5,9,14,15,25-heptaazahexacyclo[24.4.1.1~6,10~.0~2,7~.0~11,19~.0~12,16~]dotriaconta-2,4,6(32),7,9,11,13,16,18-nonaen-24-one] |  |  |  | 10000 nM | 1000 nM | 3270 nM |  |
| C[C@H](Oc1nc2c3cnc(c(F)c3n1)-c1c(c(Cl)cc3[nH]ncc13)CCCOC(=O)O[C@@H]1COCCN2C1)[C@@H]1CCCN1C [Example 204, (26S)-18-chloro-32-fluoro-4-((1S)-1-((2S)-1-methyl-2-pyrrolidinyl)ethoxy)-23,25,28-trioxa-1,3,5,9,14,15-hexaazahexacyclo[24.4.1.1~6,10~.0~2,7~.0~11,19~.0~12,16~]dotriaconta-2,4,6,8,10(32),11,13,16,18-nonaen-24-one] |  |  |  | 429 nM | 16 nM | 34 nM |  |
| CN1C(=O)OCCCc2c(Cl)cc3[nH]ncc3c2-c2ncc3c(nc(OC[C@@]45CCCN4C[C@H](F)C5)nc3c2F)N2C[C@@H](O)C[C@@H]1C2 [Example 286, (17R,19S)-9-chloro-30-fluoro-24-(((2R,7aS)-2-fluorotetrahydro-1H-pyrrolo[1,2-a]pyrrol-7a(5H)-yl)methoxy)-19-hydroxy-16-methyl-14-oxa-5,6,16,21,23,25,29-heptaazahexacyclo[24.3.1.1~17,21~.0~2,10~.0~3,7~.0~22,27~]hentriaconta-1(30),2,4,7,9,22,24,26,28-nonaen-15-one] |  |  |  | 1250 nM | 15 nM | 81 nM |  |

Further compounds by falling IC50 [3, 6], results first:

| IC50 ([1]; Homo sapiens, ASPC1, 2 h, read-out: 2 h p-ERK (AsPC-1 cells)) | IC50 ([2]; 2 hours compound pre-incubation, read-out: KRAS G12D Coupled Exchange) | IC50 ([3]; TR-FRET, read-out: KRAS G12D Binding) | IC50 [1, 4] | IC50 [2, 5] | IC50 [3, 6] | IC50 ([1]; 2 h, read-out: 2 h p-ERK (AsPC-1 cells), IC50) | SMILES |
| --- | --- | --- | --- | --- | --- | --- | --- |
|  |  |  | 386 nM | 14 nM | 24 nM |  | Cc1cc2[nH]ncc2c2c1CCCCOC(=O)[C@@H]1CCCN(C1)c1nc(OC[C@@]34CCCN3C[C@H](F)C4)nc3c(F)c-2ncc13 [Example 108] |
|  |  |  | 421 nM | 23 nM | 24 nM |  | O=C1CCCCc2c(C(F)(F)F)cc3[nH]ncc3c2-c2ncc3c(nc(OC[C@@]45CCCN4C[C@H](F)C5)nc3c2F)N2CCC[C@H](C2)O1 [Example 87, (17R)-30-fluoro-24-(((2R,7aS)-2-fluorotetrahydro-1H-pyrrolo[1,2-a]pyrrol-7a(5H)-yl)methoxy)-9-(trifluoromethyl)-16-oxa-5,6,21,23,25,29-hexaazahexacyclo[24.3.1.1~17,21~.0~2,10~.0~3,7~.0~22,27~]hentriaconta-1(30),2,4,7,9,22,24,26,28-nonaen-15-one] |
|  |  |  | 479 nM | 15 nM | 20 nM |  | CN1CCO[C@@H](COc2nc3c4cnc(c(F)c4n2)-c2c(c(Cl)cc4[nH]ncc24)CCCOC(=O)O[C@@H]2COCCN3C2)C1 [Example 124] |
|  |  |  | 1140 nM | 18 nM | 20 nM |  | Cc1c2ncc3c(nc(OCC4CN(C)CCO4)nc13)N1CCC[C@](C)(C1)NC(=O)CCCc1c(F)ccc3cc(O)cc-2c13 (mixture of isomers) [Example 24] |
|  |  |  |  | 6 nM | 20 nM | 278 nM | Cc1cc2[nH]ncc2c2c1CCCn1ncc(n1)C1CCCN(C1)c1nc(OC[C@@]34CCCN3C[C@H](F)C4)nc3c(F)c-2ncc13 (stereo partly drawn) [Example 158, 31-Fluoro-25-(((2R,7aS)-2-fluorotetrahydro-1H-pyrrolo[1,2-a]pyrrol-7a(5H)-yl)methoxy)-9-methyl-5,6,14,15,22,24,26,30,33-nonaazaheptacyclo[25.3.1.1˜14,17˜.1˜18,22.0˜2,10˜.0˜3,7˜.0˜23,28˜]tritriaconta-1(31),2,4,7,9,15,17(33),23,25,27,29-undecaene] |
|  |  |  | 1380 nM | 14 nM | 19 nM |  | Cc1cc2[nH]ncc2c2c1CCCC(F)C(=O)N[C@@H]1COCCN(C1)c1nc(OC[C@@]34CCCN3C[C@H](F)C4)nc3c(F)c-2ncc13 (mixture of isomers) [Example 55] |
|  |  |  | 369 nM | 10 nM | 19 nM |  | Cc1cc2[nH]ncc2c2c1CCOC(=O)OC[C@@H]1CCN(C1)c1nc(OC[C@@]34CCCN3C[C@H](F)C4)nc3c(F)c-2ncc13 [Example 219] |
|  |  |  | 298 nM | 13 nM | 16 nM |  | Fc1c2ncc3c(nc(OC[C@@]45CCCN4C[C@H](F)C5)nc13)N1CCC[C@H](C1)Cn1cc(cn1)/C=C\c1c(Cl)cc3[nH]ncc3c1-2 [Example 147] |
|  |  |  | 167 nM | 11 nM | 12 nM |  | O=C1COCCc2c(Cl)cc3[nH]ncc3c2-c2ncc3c(nc(OC[C@@]45CCCN4C[C@H](F)C5)nc3c2F)N2CCC[C@H](C2)O1 [Example 90, (17R)-9-chloro-30-fluoro-24-(((2R,7aS)-2-fluorotetrahydro-1H-pyrrolo[1,2-a]pyrrol-7a(5H)-yl)methoxy)-13,16-dioxa-5,6,21,23,25,29-hexaazahexacyclo[24.3.1.1~17,21~.0~2,10~.0~3,7~.0~22,27~]hentriaconta-1(30),2,4,7,9,22,24,26,28-nonaen-15-one] |
|  |  |  | 356 nM | 5 nM | 10 nM |  | Cc1cc2[nH]ncc2c2c1CCC[C@H](F)C(=O)N(C)[C@@H]1CCCN(C1)c1nc(OC[C@@]34CCCN3C[C@H](F)C4)nc3c(F)c-2ncc13 [Example 51, (14S,17R)-14,30-difluoro-24-(((2R,7aS)-2-fluorotetrahydro-1H-pyrrolo[1,2-a]pyrrol-7a(5H)-yl)methoxy)-9,16-dimethyl-5,6,16,21,23,25,29-heptaazahexacyclo[24.3.1.1~17,21~.0~2,10~.0~3,7~.0~22,27~]hentriaconta-1(30),2,4,7,9,22,24,26,28-nonaen-15-one] |
|  |  |  | 171 nM | 8 nM | 9 nM |  | O=C1OCCc2cccc3cccc(c23)-c2ncc3c(nc(OC[C@@]45CCCN4C[C@H](F)C5)nc3c2F)N2CCOC[C@H](C2)O1 [Example 201, (16S)-32-fluoro-8-(((2R,7aS)-2-fluorotetrahydro-1H-pyrrolo[1,2-a]pyrrol-7a(5H)-yl)methoxy)-14,17,19-trioxa-3,7,9,11-tetraazahexacyclo[20.7.1.1~2,6~.1~11,16~.0~5,10~.0~26,30~]dotriaconta-1(29),2(32),3,5,7,9,22,24,26(30),27-decaen-18-one] |
